Assay results: patent publication US20220055989A1, “CONDENSED PYRROLES AS NOVEL BROMODOMAIN INHIBITORS” (ALBERT LUDWING UNIVERSITÄT FREIBURG, priority 2018, published 2022)
Like-named read-outs stand apart in the source and are kept apart here.

Columns and labels:
Format in all cases: binding
BRD9 = target: T1, BRD9 (Homo sapiens, UniProt Q9H8M2); assay: BROMOscan Kd determination BRD9
T1 construct: T7 phage strains displaying bromodomains were grown; host or cells: T7 phage in E. coli derived from BL21
T1 sequence (Q9H8M2 136-240 limits assumed): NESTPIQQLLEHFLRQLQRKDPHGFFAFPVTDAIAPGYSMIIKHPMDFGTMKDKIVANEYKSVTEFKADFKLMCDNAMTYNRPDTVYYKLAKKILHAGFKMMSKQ
Method: (§1) Bromodomain profiling was carried out on the basis of BROMOscan™. This platform accounted for the indirect determination of the dissociation constants between 19 bromodomains and the compound of formula (13), by binding competition against a reference immobilized ligand. Compounds that bind the bromodomain prevent its binding to the immobilized ligand thus reducing the amount of protein captured. […] Hits are identified by measuring the amount of bromodomain captured in test versus control samples. Bromodomain assays for Kd determination: T7 phage strains displaying bromodomains were grown in parallel in 24-well blocks in an E. coli host derived from the BL21 strain. E. coli were grown to log-phase and infected with T7 phage from a frozen stock (multiplicity of infection=0.4) and incubated with shaking at 32° C. until lysis (90-150 minutes). The lysates were centrifuged (5,000×g) and filtered (0.2 μm) to remove cell debris. […] The liganded beads were blocked with excess biotin and washed with blocking buffer (SeaBlock (Pierce), 1% BSA, 0.05% Tween 20, 1 mM DTT) to remove unbound ligand and to reduce non-specific phage binding. […] Test compounds were prepared as 1000× stocks in 100% DMSO. Kds were determined using an 11-point 3-fold compound dilution series with one DMSO control point. All compounds for Kd measurements are distributed by acoustic transfer (non-contact dispensing) in 100% DMSO. The compounds were then diluted directly into the assays such that the final concentration of DMSO was 0.09%. All reactions performed in polypropylene 384-well plates. Each was a final volume of 0.02 ml. […] The bromodomain concentration in the eluates was measured by qPCR. […] All compounds for Kd measurements are distributed by acoustic transfer (non-contact dispensing) in 100% DMSO. The compounds were then diluted directly into the assays such that the final concentration of DMSO was 0.09%. Most Kds were determined using a compound top concentration=10,000 nM. If the initial Kd determined was <0.169 nM (the lowest concentration tested), the measurement was repeated with a serial dilution starting at a lower top concentration. Binding Constants (Kds): Binding constants (Kds) were calculated with a standard dose-response curve using the Hill equation: The Hill Slope was set to −1. Curves were fitted using a non-linear least square fit with the Levenberg-Marquardt algorithm.

BRDT(1) = target: T2, BRDT(1) (Homo sapiens, UniProt Q58F21); assay: BROMOscan Kd determination BRDT(1)
T2 construct: T7 phage strains displaying bromodomains were grown; host or cells: T7 phage in E. coli derived from BL21
Method: as §1

BRD2(2) = target: T3, BRD2(2) (Homo sapiens, UniProt P25440); assay: BROMOscan Kd determination BRD2(2)
T3 construct: T7 phage strains displaying bromodomains were grown in parallel; made in house; host or cells: T7 phage grown in an E. coli host derived from the BL21 strain
T3 sequence (P25440 344-453 limits assumed): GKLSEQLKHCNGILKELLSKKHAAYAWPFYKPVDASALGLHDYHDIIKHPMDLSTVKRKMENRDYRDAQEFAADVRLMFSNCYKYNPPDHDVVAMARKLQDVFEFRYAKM
Method: Bromodomain profiling was carried out on the basis of BROMOscan™. This platform accounted for the indirect determination of the dissociation constants between 19 bromodomains and the compound of formula (13), by binding competition against a reference immobilized ligand. Compounds that bind the bromodomain prevent its binding to the immobilized ligand thus reducing the amount of protein captured. […] Hits are identified by measuring the amount of bromodomain captured in test versus control samples. Bromodomain assays for Kd determination: T7 phage strains displaying bromodomains were grown in parallel in 24-well blocks in an E. coli host derived from the BL21 strain. E. coli were grown to log-phase and infected with T7 phage from a frozen stock (multiplicity of infection=0.4) and incubated with shaking at 32° C. until lysis (90-150 minutes). The lysates were centrifuged (5,000×g) and filtered (0.2 μm) to remove cell debris. […] Kds were determined using an 11-point 3-fold compound dilution series with one DMSO control point. […] The bromodomain concentration in the eluates was measured by qPCR. […] Most Kds were determined using a compound top concentration=10,000 nM. […] Binding Constants (Kds): Binding constants (Kds) were calculated with a standard dose-response curve using the Hill equation: The Hill Slope was set to −1. […]

BRD4(1) [1] = target: T4, BRD4(1) (Homo sapiens, UniProt O60885); assay: BROMOscan Kd determination BRD4(1)
T4 construct: BRD4-BD1 was expressed and purified as described previously; made in house
Method: as §1

BRD4(1) [2] = target: T4, BRD4(1); assay: Isothermal titration calorimetry, dissociation constant KD BRD4(1)
Method: BRD4-BD1 was expressed and purified as described previously (Filippakopoulos et al, (2012), Cell 149(1): […]) with the exception of the final buffer for crystallization and ITC analysis (20 mM Hepes/NaOH pH 7.5, 150 mM NaCl). Crystals were grown in the presence of 3.5 M Na-Formate (pH 7.5) at a protein concentration of 10 mg/ml and a ligand concentration of 2 mM added directly to the protein prior to crystallization from a 100 mM stock solution in DMSO. Data were collected at 100K using either a Rigaku HF-007 rotating anode X-ray generator equipped with VariMaxHF optics and a Saturn944 CCD detector or a mar345 image plate respectively at λ=1.54179 Å or at the PXI beamline at the Swiss Light Source at λ=1.000 Å with a Pilatus detector. Data processing and reduction was done with iMOSFLM (Leslie AGW PH (2007), Evolving Methods for Macromolecular Crystallography 245, 41.51), POINTLESS, and SCALA (Kabsch W (2010) Xds. Acta crystallographica. Section D, Biological crystallography 66(Pt 2):125-132; Bruker (2008) SADABS, SAINT and XPREP (Bruker AXS Inc., Madison, Wis., USA); Collaborative Computational Project N (1994) The CCP4 suite: programs for protein crystallography, Acta crystallographica, Section D, Biological crystallography 50(Pt 5):760-763), or with XDS, XSCALE, XDSCONV (Evans P (2006), Scaling and assessment of data quality, Acta crystallographica, Section D, Biological crystallography 62(Pt 1):72-82), and XPREP (Evans P R (2011), An introduction to data reduction: space-group determination, scaling and intensity statistics, Acta crystallographica, Section D, Biological crystallography 67(Pt 4):282-292).
Data were obtained in discrete titration experiments with an injection volume of 12 μl per injection. Subsequently, the heats per injection were calculated as integrals and after normalization against the molar concentrations plotted against the molar ratio as implemented in Microcal Origin. Finally, data were fitted according to a single set of sites binding model with
The dissociation constant Kd, is commonly used to describe the affinity between a ligand L and a protein, i.e. how tightly a ligand binds to a particular protein. The dissociation constant has molar units which correspond to the concentration of ligand at which the binding site on a particular protein is half occupied, i.e. the concentration of the ligand at which the concentration of protein with ligand bound equals the concentration of protein with no ligand bound. The smaller the dissociation constant, the higher the affinity between ligand and protein.

BRPF1 = target: T5, BRPF1 (Homo sapiens, UniProt P55201); assay: BROMOscan Kd determination BRPF1
T5 construct: T7 phage strains displaying bromodomains were grown; host or cells: T7 phage in E. coli derived from BL21
T5 sequence (P55201 628-732 limits assumed): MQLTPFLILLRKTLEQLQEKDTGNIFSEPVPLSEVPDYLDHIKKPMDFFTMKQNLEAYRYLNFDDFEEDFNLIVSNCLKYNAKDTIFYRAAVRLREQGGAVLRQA
Method: as §1

BRD7 = target: T6, BRD7 (Homo sapiens, UniProt Q9NPI1); assay: BROMOscan Kd determination BRD7
T6 construct: T7 phage strains displaying bromodomains were grown; host or cells: T7 phage in E. coli derived from BL21
T6 sequence (Q9NPI1 131-235 limits assumed): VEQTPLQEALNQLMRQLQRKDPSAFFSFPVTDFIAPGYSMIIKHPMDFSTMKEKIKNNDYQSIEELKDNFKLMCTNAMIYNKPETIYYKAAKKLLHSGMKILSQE
Method: as §1

CECR2 = target: T7, CECR2 (Homo sapiens, UniProt Q9BXF3); assay: BROMOscan Kd determination CECR2
T7 construct: T7 phage strains displaying bromodomains were grown; host or cells: T7 phage in E. coli derived from BL21
T7 sequence (Q9BXF3 434-538 limits assumed): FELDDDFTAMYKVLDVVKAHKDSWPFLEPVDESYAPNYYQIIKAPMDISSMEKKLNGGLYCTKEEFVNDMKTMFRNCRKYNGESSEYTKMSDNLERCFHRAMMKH
Method: as §1

BRPF1B = target: T8, BRPF1B (Homo sapiens, UniProt P55201); assay: Dissociation constant KD BRPF1B
T8 construct: dissociation constants KD for two bromodomains (BRD4(1) and BRPF1B)
T8 sequence (P55201 628-732 limits assumed): T5 sequence (P55201 628-732 limits assumed)

Kd (BRD9)	Kd (BRDT(1))	Kd (BRD2(2))	Kd (BRD4(1) [1])	Kd (BRD4(1) [2])	Kd (BRPF1)	Kd (BRD7)	Kd (CECR2)	Kd (BRPF1B)	Kd (BRD9; Table 3 compound 27)	Kd (BRDT(1); Table 3 compound 27)	Kd (BRD4(1) [1]; Table 3 compound 27)	Kd (CECR2; Table 3 compound 27)	Kd (BRPF1; Table 3 compound 27)	Kd (BRD7; Table 3 compound 27)	Compound
67 nM	670 nM	290 nM	60 nM	77.8 nM	520 nM	85 nM									COc1ccc(S(=O)(=O)N2CCOCC2)cc1NC(=O)c1[nH]c(C)c2c1CCCCC2=O [Compound 13, N-(2-methoxy-5-(morpholinosulfonyl)phenyl)-3-methyl-4-oxo-2,4,5,6,7,8-hexahydrocyclohepta[c]pyrrole-1-carboxamide]
67 nM	240 nM	200 nM	250 nM		130 nM	430 nM	970 nM	166 nM							Cc1[nH]c(-c2cc(N)ccc2Cl)c2c1C(=O)CCCC2 [Compound 23]
150 nM	6100 nM		6900 nM	6900 nM	7000 nM	1100 nM	> 10000 nM	7000 nM							CCCc1[nH]c(-c2cc(N)ccc2Cl)c2c1C(=O)CCCC2 [Compound 26, 1-(5-Amino-2-chlorophenyl)-3-propyl-5,6,7,8-tetrahydrocyclohepta[c]pyrrol-4(2H)-one]
				> 10000 nM				> 10000 nM	800 nM	> 10000 nM	> 10000 nM	> 10000 nM	> 10000 nM	> 10000 nM	CCCCc1[nH]c(-c2cc(N)ccc2Cl)c2c1C(=O)CCCC2 [Compound 27, 1-(5-Amino-2-chlorophenyl)-3-butyl-5,6,7,8-tetrahydrocyclohepta[c]pyrrol-4(2H)-one]
